The values that follow come from paper PMC12715762, “Discovery of VU6052254: A Novel, Potent M1 Positive Allosteric Modulator” (ACS Chemical Neuroscience, 2025).

The conditions of series [1]: result in words; cited from earlier work.
The nature of series [2]: brain to plasma ratio (rat). Format: in vivo. On the procedure: covered in Principles of Laboratory Animal Care (National Institutes of Health). All rats were fasted overnight prior to testing.
For determination of the brain over plasma ratio (Kp), compounds were formulated in 8% ethanol, 32% PEG400 and 60% DMSO (v/v/v) and administered as a single 0.2 mg/kg IV dose (1 mL/kg) to male, Sprague Dawley rats (n = 1) via injection into a surgically-implanted jugular vein catheter. At 15 min post dosing, blood sample was collected into chilled, K2EDTA anticoagulant-fortified tube and immediately placed on wet ice. The blood sample was then centrifuged (1700 rcf, 5 minutes, 4 °C) to obtain plasma sample. At the same post-administration time point, whole brain sample was obtained by rapid dissection, rinsed with PBS, and immediately frozen in individual tissue collection box (dry ice). All brain and plasma samples were stored at -80 °C until […]
Sample Analysis: Concentrations in plasma and brain homogenates were quantified by liquid chromatography tandem mass spectrometry (LC-MS/MS). Whole brains were homogenized in 3 mL of 70:30 IPA:water in a mini bead beater for 3 min, and centrifuged at 3,500 g for 5 min. 5 uL of the supernatant was diluted in 15 uL of blank plasma for quantification of the analytes. Plasma samples were centrifuged at 3,500 g for 5 min. […]
Plasma and brain tissue samples originating from in vivo studies were analyzed by electrospray ionization using an AB Sciex Q-TRAP 5500 (Foster City, CA) that was coupled to a Shimadzu LC-20AD pump (Columbia, MD) and a Leap Technologies CTC PAL auto-sampler (Carrboro, NC). […]
min, with an isocratic hold for 0.5 min, before transitioning to 10% B over 0.05 min. […] All data were analyzed using AB Sciex Analyst 1.5.1 software.
Brain plasma concentration ratio (Kp) was calculated by dividing brain concentration by plasma concentration for each animal. Unbound brain to unbound plasma concentration ratio (Kp,uu) is calculated using the following formula: Kp,uu = (Brain ng/g x brain fu)/(plasma ng/ml x plasma fu). […]

Series [3] can be described thus: human PK and dose predictions (geometric mean of six methods). On the procedure: The predicted dose for 7 ranged from 32 to 84 mg QD. Based on this analysis, PAM 7 was advanced to safety and ADME studies.
Another series concerns the target Adenosine A1 (Homo sapiens, UniProt P30542). Description: Eurofins radioligand binding.
In a further series the target is Adenosine A3 (Homo sapiens, UniProt P0DMS8). Briefly: Eurofins radioligand binding.
Chain of Adenosine A3 (P0DMS8 whole entry): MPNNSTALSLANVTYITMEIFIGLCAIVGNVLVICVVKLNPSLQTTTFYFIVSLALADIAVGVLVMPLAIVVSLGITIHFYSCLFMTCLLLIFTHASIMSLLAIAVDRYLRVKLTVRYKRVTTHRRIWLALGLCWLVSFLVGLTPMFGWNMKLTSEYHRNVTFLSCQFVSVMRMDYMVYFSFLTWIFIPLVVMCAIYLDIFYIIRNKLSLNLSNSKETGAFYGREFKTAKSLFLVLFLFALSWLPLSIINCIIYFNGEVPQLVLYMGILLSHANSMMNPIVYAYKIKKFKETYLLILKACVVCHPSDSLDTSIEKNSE
Series [4] deals with Calcium Channel L-Type, Benzothiazepine. Description: Eurofins radioligand binding. As to conditions: Rat.
The target of the next series is Endothelin ETA (Homo sapiens, UniProt P25101). Briefly: Eurofins radioligand binding.
Chain of Endothelin ETA (P25101 21-427): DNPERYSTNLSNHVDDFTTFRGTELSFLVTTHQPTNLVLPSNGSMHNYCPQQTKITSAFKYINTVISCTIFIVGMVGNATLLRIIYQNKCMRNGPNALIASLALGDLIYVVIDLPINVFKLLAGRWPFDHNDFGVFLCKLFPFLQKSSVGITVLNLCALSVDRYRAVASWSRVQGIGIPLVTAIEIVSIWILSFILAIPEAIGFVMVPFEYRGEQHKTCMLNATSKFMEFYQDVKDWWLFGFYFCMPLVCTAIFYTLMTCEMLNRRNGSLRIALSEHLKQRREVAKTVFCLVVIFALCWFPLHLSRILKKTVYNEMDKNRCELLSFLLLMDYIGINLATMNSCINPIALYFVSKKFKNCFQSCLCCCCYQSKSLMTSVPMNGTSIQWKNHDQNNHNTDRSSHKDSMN
Series [5] has as its target Epidermal Growth Factor (EGF) (Homo sapiens, UniProt P00533). Description: Eurofins radioligand binding.
The test system of series [6] is GABAA, Flunitrazepam, Central. Description: Eurofins radioligand binding. As to conditions: Rat.
In a further series the test system is Glutamate, Kainate. Briefly: Eurofins radioligand binding. The conditions noted are these: Rat.
The next series concerns the target Histamine H1 (Homo sapiens, UniProt P35367). Briefly: Eurofins radioligand binding.
In another series the target is Muscarinic M1 (Homo sapiens, UniProt P11229). Description: Eurofins radioligand binding.
Chain of Muscarinic M1 (P11229 whole entry): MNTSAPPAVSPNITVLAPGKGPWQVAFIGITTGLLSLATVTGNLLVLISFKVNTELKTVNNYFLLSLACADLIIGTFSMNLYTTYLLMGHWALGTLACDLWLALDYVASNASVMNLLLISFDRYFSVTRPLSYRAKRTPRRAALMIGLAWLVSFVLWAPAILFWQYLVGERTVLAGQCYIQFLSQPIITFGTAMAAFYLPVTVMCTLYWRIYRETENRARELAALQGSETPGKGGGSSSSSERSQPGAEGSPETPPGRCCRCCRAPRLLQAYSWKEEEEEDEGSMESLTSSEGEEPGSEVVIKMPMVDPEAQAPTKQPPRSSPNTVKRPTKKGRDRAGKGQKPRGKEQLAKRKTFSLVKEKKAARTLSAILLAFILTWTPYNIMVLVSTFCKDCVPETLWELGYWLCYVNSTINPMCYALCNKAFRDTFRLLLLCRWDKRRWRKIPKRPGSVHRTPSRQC
The target in another series is Opiate δ1 (OP1, DOP) (Homo sapiens, UniProt P41143). Description: Eurofins radioligand binding.
Chain of Opiate δ1 (OP1, DOP) (P41143 whole entry): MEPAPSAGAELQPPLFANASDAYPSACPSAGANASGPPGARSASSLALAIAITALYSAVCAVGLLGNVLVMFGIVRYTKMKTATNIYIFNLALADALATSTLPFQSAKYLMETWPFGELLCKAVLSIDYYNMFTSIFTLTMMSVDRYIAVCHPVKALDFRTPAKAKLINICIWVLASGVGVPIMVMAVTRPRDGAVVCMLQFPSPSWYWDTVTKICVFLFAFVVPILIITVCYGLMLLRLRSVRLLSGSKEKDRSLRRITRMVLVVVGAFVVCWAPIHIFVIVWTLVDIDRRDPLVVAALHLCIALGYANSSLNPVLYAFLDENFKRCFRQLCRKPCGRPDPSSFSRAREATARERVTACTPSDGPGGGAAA
In series [7] the target is Transporter, Dopamine (DAT) (Homo sapiens, UniProt Q01959). Description: Eurofins radioligand binding.
Chain of Transporter, Dopamine (DAT) (Q01959 whole entry): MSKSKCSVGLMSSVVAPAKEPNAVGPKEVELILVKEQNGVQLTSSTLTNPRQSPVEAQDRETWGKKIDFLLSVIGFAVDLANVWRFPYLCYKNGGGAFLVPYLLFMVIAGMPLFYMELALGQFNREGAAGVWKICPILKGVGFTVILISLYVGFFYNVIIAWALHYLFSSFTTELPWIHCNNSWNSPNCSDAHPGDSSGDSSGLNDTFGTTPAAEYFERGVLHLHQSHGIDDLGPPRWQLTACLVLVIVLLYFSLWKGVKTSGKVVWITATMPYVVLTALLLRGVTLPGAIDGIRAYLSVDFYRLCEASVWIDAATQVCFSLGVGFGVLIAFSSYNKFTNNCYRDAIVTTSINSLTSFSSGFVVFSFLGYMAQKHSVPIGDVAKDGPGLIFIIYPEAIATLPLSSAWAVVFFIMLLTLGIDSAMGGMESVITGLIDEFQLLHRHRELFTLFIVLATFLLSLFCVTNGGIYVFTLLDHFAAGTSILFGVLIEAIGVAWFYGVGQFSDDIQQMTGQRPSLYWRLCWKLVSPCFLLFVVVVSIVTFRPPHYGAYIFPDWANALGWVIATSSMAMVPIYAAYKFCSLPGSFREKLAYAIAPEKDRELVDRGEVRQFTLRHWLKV
Series [8] concerns the target Transporter, Serotonin (SERT) (Homo sapiens, UniProt P31645). Briefly: Eurofins radioligand binding.

Chain of Transporter, Serotonin (SERT) (P31645 whole entry): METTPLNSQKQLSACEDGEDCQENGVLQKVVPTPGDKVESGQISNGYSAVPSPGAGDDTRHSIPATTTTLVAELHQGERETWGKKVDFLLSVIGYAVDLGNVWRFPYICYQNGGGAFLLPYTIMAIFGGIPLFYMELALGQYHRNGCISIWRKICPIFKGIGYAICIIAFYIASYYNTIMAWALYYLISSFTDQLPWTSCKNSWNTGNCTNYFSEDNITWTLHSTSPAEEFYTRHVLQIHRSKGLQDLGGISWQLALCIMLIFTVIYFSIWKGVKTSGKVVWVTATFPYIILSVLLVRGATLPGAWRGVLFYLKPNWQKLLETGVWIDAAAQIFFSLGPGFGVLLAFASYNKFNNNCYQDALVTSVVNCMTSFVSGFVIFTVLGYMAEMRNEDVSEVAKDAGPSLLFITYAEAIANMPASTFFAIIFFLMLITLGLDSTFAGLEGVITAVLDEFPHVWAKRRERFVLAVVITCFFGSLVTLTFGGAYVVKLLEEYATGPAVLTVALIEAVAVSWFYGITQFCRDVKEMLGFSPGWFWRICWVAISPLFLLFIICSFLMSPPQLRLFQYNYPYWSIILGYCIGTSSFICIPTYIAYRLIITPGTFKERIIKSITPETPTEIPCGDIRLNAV
Chain of Adenosine A1 (P30542 whole entry): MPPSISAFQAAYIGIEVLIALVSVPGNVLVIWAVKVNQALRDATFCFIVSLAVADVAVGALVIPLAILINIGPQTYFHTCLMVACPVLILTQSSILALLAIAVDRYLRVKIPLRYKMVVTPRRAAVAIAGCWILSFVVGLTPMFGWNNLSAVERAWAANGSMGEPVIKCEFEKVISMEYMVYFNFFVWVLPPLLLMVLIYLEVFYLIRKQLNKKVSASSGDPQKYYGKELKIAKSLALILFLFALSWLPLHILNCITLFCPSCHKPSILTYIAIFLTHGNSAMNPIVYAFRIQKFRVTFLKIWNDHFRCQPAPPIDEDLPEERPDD
Chain of Histamine H1 (P35367 whole entry): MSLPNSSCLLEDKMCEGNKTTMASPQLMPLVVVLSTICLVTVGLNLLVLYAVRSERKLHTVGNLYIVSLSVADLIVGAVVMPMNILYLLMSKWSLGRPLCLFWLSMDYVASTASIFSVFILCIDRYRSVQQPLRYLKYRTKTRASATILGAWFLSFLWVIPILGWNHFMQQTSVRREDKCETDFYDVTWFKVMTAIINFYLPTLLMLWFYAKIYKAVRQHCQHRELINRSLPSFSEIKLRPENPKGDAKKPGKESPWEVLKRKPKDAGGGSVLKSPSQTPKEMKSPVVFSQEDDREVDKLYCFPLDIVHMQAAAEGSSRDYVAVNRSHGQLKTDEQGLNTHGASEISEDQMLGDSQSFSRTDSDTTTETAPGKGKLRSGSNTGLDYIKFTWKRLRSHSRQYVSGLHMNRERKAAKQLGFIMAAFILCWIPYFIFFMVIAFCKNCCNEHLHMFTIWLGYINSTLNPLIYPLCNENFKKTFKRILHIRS
Chain of Epidermal Growth Factor (EGF) (P00533 25-1210): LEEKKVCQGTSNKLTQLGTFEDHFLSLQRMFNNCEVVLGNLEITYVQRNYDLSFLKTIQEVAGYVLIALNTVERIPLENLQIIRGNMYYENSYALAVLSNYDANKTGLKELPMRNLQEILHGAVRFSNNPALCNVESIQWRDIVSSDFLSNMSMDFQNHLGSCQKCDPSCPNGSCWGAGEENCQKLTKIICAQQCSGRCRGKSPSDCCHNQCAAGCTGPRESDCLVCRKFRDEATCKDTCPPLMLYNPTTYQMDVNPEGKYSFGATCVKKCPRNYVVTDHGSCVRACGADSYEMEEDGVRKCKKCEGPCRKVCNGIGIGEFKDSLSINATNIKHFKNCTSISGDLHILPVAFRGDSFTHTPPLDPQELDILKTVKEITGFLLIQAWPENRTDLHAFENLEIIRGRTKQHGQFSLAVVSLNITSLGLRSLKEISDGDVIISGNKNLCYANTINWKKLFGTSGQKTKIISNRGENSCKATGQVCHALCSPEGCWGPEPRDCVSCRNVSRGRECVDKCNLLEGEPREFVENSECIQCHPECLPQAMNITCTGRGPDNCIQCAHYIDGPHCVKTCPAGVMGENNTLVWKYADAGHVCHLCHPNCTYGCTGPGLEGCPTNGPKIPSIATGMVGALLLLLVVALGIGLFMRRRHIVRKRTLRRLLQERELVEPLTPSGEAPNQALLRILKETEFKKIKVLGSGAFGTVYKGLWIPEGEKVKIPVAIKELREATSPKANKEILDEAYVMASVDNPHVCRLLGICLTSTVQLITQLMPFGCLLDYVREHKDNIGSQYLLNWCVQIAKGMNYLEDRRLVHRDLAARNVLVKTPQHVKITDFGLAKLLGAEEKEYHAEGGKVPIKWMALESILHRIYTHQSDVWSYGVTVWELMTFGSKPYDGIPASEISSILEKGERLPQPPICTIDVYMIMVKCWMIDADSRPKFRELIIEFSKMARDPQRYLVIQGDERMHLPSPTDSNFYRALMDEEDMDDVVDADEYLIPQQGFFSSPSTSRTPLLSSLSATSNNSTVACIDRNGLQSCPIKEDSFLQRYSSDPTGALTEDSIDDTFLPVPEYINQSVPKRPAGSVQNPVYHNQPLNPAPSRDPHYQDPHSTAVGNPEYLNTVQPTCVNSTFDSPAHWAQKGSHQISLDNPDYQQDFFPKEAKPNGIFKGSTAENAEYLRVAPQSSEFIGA

As for `Cn1cc2c(-c3cc(F)c(CN4Cc5ncccc5C4=O)c(F)c3)cccc2n1` [compound 1, reference compound], in series [1], the “cholinergic toxicity in Phase I SAD trial” value was “without any observed cholinergic toxicity”.
One may read the Kp as tissue or fluid exposure divided by exposure in the circulation. For orientation: inhibition means the relative decrease from the control value, in per cent. What is called % Inhibition is the drop in the measured response relative to a control, in per cent. With `Cn1cc2c(-c3cc(F)c(CN4Cc5ncccc5C4=O)c(F)c3)ccc(C(C)(C)O)c2n1` [compound 7], the concentration ratio (Kp) in [2] (brain:plasma) was determined as 1.08. For the same compound, the Kp at 15 min in series [2] (male, Sprague Dawley, brain and plasma, intravenous, 0.2 mg/kg, brain:plasma) is 1.07. Besides, in [2] (male, Sprague Dawley, brain and plasma, intravenous, 0.2 mg/kg, unbound brain:unbound plasma), the Kp uu at 15 min was 1.27. The predicted human dose in series [3] (QD) was 32 to 84 mg. Further, the “predicted human CLp” value in series [3] (geometric mean of six methods) is 2.6 mL/min/kg. The “predicted human Vss” value in [3] (geometric mean of six methods) is reported as 1.16 L/kg. Besides, the “predicted human oral bioavailability” value in series [3] (geometric mean of six methods) is recorded as 79%. In addition, in series [3] (geometric mean of six methods), the “predicted human t1/2” value is recorded as 5.1 h. In addition, the inhibition at 10 µM on Adenosine A1 is -2%; on Adenosine A3, 8%; at Endothelin ETA it was 11%; in series [5], -14%; on Histamine H1, 4%; on Muscarinic M1, 18%. For the same compound, the inhibition at 10 µM on Opiate δ1 (OP1, DOP) was -2%; in series [7], 7%; in [8], -1%. Moreover, the “% Inhibition at 10 µM” value is 80% in [4]; 4% in series [6]; -2% in the series with Glutamate, Kainate.
